Melting point data for 37 compounds are collected here from patent US7718808B2, “Thiazole derivatives” (Kyowa Hakko Kirin Co., Ltd., priority 2003, dated 2010).

As usually defined, the melting point is the temperature of the solid-liquid transition. `Cc1cccc(C(=O)c2sc(NC(=O)c3ccncc3)nc2-c2ccco2)n1` [Compound 284, N-[4-(2-Furyl)-5-(6-methylpyridin-2-ylcarbonyl)thiazol-2-yl]pyridine-4-carboxamide] yielded a melting point of 238 to 241 °C.

Take `Cc1ccc(C(=O)c2sc(NC(=O)c3ccncc3)nc2-c2ccco2)nc1` [Compound 294, N-[4-(2-Furyl)-5-(5-methylpyridin-2-ylcarbonyl)thiazol-2-yl]pyridine-4-carboxamide]: the melting point is 255 to 257 °C.

In turn, `Cc1ccnc(C(=O)c2sc(NC(=O)c3ccncc3)nc2-c2ccco2)c1` [Compound 295, N-[4-(2-Furyl)-5-(4-methylpyridin-2-ylcarbonyl)thiazol-2-yl]pyridine-4-carboxamide] returned a melting point of 240 to 245 °C.

For `O=C(Nc1nc(-c2ccco2)c(C(=O)c2cccnc2)s1)c1ccncc1` [Compound 304, N-[4-(2-Furyl)-5-(pyridin-3-ylcarbonyl)thiazol-2-yl]pyridine-4-carboxamide], the melting point was in the range of 245 to 248 °C.

`O=C(c1cccnc1)c1sc(NC(=O)C2CC2)nc1-c1ccco1` [Compound 305, N-[4-(2-Furyl)-5-(pyridin-3-ylcarbonyl)thiazol-2-yl]cyclopropanecarboxamide] yielded a melting point of 231 to 233 °C.

`N#Cc1ccc(C(=O)Nc2nc(-c3ccco3)c(C(=O)c3cccnc3)s2)cc1` [Compound 306, 4-Cyano-N-[4-(2-furyl)-5-(pyridin-3-ylcarbonyl)thiazol-2-yl]benzamide] displayed a melting point of 288 to 290 °C.

In turn, `O=C(Nc1nc(-c2ccco2)c(C(=O)c2cccnc2)s1)c1ccco1` [Compound 307, N-[4-(2-Furyl)-5-(pyridin-3-ylcarbonyl)thiazol-2-yl]furan-2-carboxamide] registered a melting point of 234 to 236 °C.

In turn, `Cc1ncccc1C(=O)c1sc(NC(=O)c2ccncc2)nc1-c1ccco1` [Compound 310, N-[4-(2-Furyl)-5-(2-methylpyridin-3-ylcarbonyl)thiazol-2-yl]pyridine-4-carboxamide] displayed a melting point of 230 to 234 °C.

In the case of `Cc1ccc(C(=O)c2sc(NC(=O)c3ccncc3)nc2-c2ccco2)cn1` [Compound 313, N-[4-(2-Furyl)-5-(2-methylpyridin-5-ylcarbonyl)thiazol-2-yl]pyridine-4-carboxamide], the melting point is 230 to 232 °C (dec.).

The compound `Cc1ccc(C(=O)c2sc(NC(=O)c3ccc(C#N)cc3)nc2-c2ccco2)cn1` [Compound 314, 4-Cyano-N-[4-(2-furyl)-5-(2-methylpyridin-5-ylcarbonyl)thiazol-2-yl]benzamide] came in with a melting point of 261 to 265 °C.

Turning to `Cc1ccc(C(=O)c2sc(NC(=O)c3ccco3)nc2-c2ccco2)cn1` [Compound 315, N-[4-(2-Furyl)-5-(2-methylpyridin-5-ylcarbonyl)thiazol-2-yl]furan-2-carboxamide], the melting point is 197 to 209 °C.

For the compound `Cc1ccc(C(=O)c2sc(NC(=O)c3ccoc3)nc2-c2ccco2)cn1` [Compound 316, N-[4-(2-Furyl)-5-(2-methylpyridin-5-ylcarbonyl)thiazol-2-yl]furan-3-carboxamide], the melting point was in the range of 229 to 231 °C.

In the case of `COc1ccc(C(=O)c2sc(NC(=O)c3ccncc3)nc2-c2ccco2)cn1` [Compound 319, N-[4-(2-Furyl)-5-(2-methoxypyridin-5-ylcarbonyl)thiazol-2-yl]pyridine-4-carboxamide], the melting point is 246 to 257 °C (dec.).

`O=C(Nc1nc(-c2ccco2)c(C(=O)c2ccc(N3CCOCC3)nc2)s1)c1ccncc1` [Compound 324, N-[4-(2-Furyl)-5-(2-morpholinopyridin-5-ylcarbonyl)thiazol-2-yl]pyridine-4-carboxamide] came in with a melting point of 195 to 205 °C.

`CN1CCN(c2ccc(C(=O)c3sc(NC(=O)c4ccncc4)nc3-c3ccco3)cn2)CC1` [Compound 325, N-(4-(2-Furyl)-5-[2-(4-methylpiperazin-1-yl)pyridin-5-ylcarbonyl]thiazol-2-yl)pyridine-4-carboxamide]: the melting point was in the range of 195 to 205 °C.

Regarding `O=C(Nc1nc(-c2ccco2)c(C(=O)c2ccc(N3CCC(O)CC3)nc2)s1)c1ccncc1` [Compound 326, N-{4-(2-Furyl)-5-[2-(4-hydroxypiperidino)pyridin-5-ylcarbonyl]thiazol-2-yl}pyridine-4-carboxamide], the melting point is 264 to 268 °C.

In the case of `O=C(Nc1nc(-c2ccco2)c(C(=O)c2ccncc2)s1)c1ccncc1` [Compound 329, N-[4-(2-Furyl)-5-(pyridin-4-ylcarbonyl)thiazol-2-yl]pyridine-4-carboxamide], the melting point is 276 to 285 °C.

On to `Cc1cc(C(=O)c2sc(NC(=O)c3ccncc3)nc2-c2ccco2)ccn1` [Compound 332, N-[4-(2-Furyl)-5-(2-methylpyridin-4-ylcarbonyl)thiazol-2-yl]pyridine-4-carboxamide], for which the melting point lay in the range of 223 to 225 °C.

`Cc1cc(C(=O)Nc2nc(-c3ccco3)c(C(=O)c3ccnc(C)c3)s2)ccn1` [Compound 333, N-[4-(2-Furyl)-5-(2-methylpyridin-4-ylcarbonyl)thiazol-2-yl]-2-methylpyridine-4-carboxamide] came in with a melting point of 205 to 229 °C.

`COc1cc(C(=O)c2sc(NC(=O)c3ccncc3)nc2-c2ccco2)ccn1` [Compound 336, N-[4-(2-Furyl)-5-(2-methoxypyridin-4-ylcarbonyl)thiazol-2-yl]pyridine-4-carboxamide] gave a melting point of 237 to 239 °C.

Turning to `O=C(Nc1nc(-c2ccco2)c(C(=O)c2ccnc(N3CCOCC3)c2)s1)c1ccncc1` [Compound 339, N-[4-(2-Furyl)-5-(2-morpholinopyridin-4-ylcarbonyl)thiazol-2-yl]pyridine-4-carboxamide], the melting point was in the range of 270 to 273 °C.

The compound `O=C(Nc1nc(-c2ccco2)c(C(=O)c2ccco2)s1)c1ccncc1` [Compound 342, N-[4-(2-Furyl)-5-(furan-2-ylcarbonyl)thiazol-2-yl]pyridine-4-carboxamide] returned a melting point of 245 to 248 °C.

Consider `Cc1ccc(C(=O)c2sc(NC(=O)c3ccncc3)nc2-c2ccco2)o1` [Compound 343, N-[4-(2-Furyl)-5-(5-methylfuran-2-ylcarbonyl)thiazol-2-yl]pyridine-4-carboxamide], for which the melting point was 185 to 189 °C.

In turn, `O=C(Nc1nc(-c2ccco2)c(C(=O)c2ccoc2)s1)c1ccncc1` [Compound 346, N-[4-(2-furyl)-5-(furan-3-ylcarbonyl)thiazol-2-yl]pyridine-4-carboxamide] had a melting point of 217 to 231 °C.

`O=C(Nc1nc(-c2ccco2)c(C(=O)c2cccs2)s1)c1ccncc1` [Compound 347, N-[4-(2-Furyl)-5-(thiophen-2-ylcarbonyl)thiazol-2-yl]pyridine-4-carboxamide] registered a melting point of 208 to 210 °C.

Regarding `Cc1cnc(C(=O)c2sc(NC(=O)c3ccncc3)nc2-c2ccco2)s1` [Compound 349, N-[4-(2-Furyl)-5-(5-methylthiazol-2-ylcarbonyl)thiazol-2-yl]pyridine-4-carboxamide], the melting point was 275 to 277 °C (dec.).

On to `Cc1csc(C(=O)c2sc(NC(=O)c3ccncc3)nc2-c2ccco2)n1` [Compound 350, N-[4-(2-Furyl)-5-(4-methylthiazol-2-ylcarbonyl)thiazol-2-yl]pyridine-4-carboxamide], for which the melting point was 250 to 255 °C.

With `Cc1nc(C(=O)c2sc(NC(=O)c3ccncc3)nc2-c2ccco2)sc1C` [Compound 351, N-[5-(4,5-Dimethylthiazol-2-ylcarbonyl)-4-(2-furyl)thiazol-2-yl]pyridine-4-carboxamide], the melting point was 270 to 272 °C (dec.).

As to `Cn1ccc(C(=O)c2sc(NC(=O)c3ccncc3)nc2-c2ccco2)c1` [Compound 354, N-[4-(2-Furyl)-5-(1-methylpyrrol-3-ylcarbonyl)thiazol-2-yl]pyridine-4-carboxamide], the melting point lay in the range of 209 to 211 °C.

The compound `CCn1ccc(C(=O)c2sc(NC(=O)c3ccncc3)nc2-c2ccco2)c1` [Compound 355, N-[5-(1-Ethylpyrrol-3-ylcarbonyl)-4-(2-furyl)thiazol-2-yl]pyridine-4-carboxamide] returned a melting point of 127 to 134 °C.

Take `O=C(Nc1nc(-c2ccco2)c(C(=O)c2ccn(Cc3ccccc3)c2)s1)c1ccncc1` [Compound 356, N-[5-(1-Benzylpyrrol-3-ylcarbonyl)-4-(2-furyl)thiazol-2-yl]pyridine-4-carboxamide]: the melting point lay within 175 to 178 °C.

`Cn1cc(C(=O)c2sc(NC(=O)c3ccncc3)nc2-c2ccco2)ccc1=O` [Compound 360, N-[4-(2-Furyl)-5-(1-methyl-2-oxo-1,2-dihydropyridin-5-ylcarbonyl)thiazol-2-yl]pyridine-4-carboxamide]: the melting point is 294 to 295 °C.

The compound `CCn1cc(C(=O)c2sc(NC(=O)c3ccncc3)nc2-c2ccco2)ccc1=O` [Compound 362, N-[5-(1-Ethyl-2-oxo-1,2-dihydropyridin-5-ylcarbonyl)-4-(2-furyl)thiazol-2-yl]pyridine-4-carboxamide] yielded a melting point of 295 to 296 °C.

Take `O=C(Nc1nc(-c2ccco2)c(C(=O)c2ccc(=O)n(Cc3ccccc3)c2)s1)c1ccncc1` [Compound 364, N-[5-(1-Benzyl-2-oxo-1,2-dihydropyridin-5-ylcarbonyl)-4-(2-furyl)thiazol-2-yl]pyridine-4-carboxamide]: the melting point is 265 to 282 °C (dec.).

For `Cn1ccc(C(=O)c2sc(NC(=O)c3ccncc3)nc2-c2ccco2)cc1=O` [Compound 367, N-[4-(2-Furyl)-5-(1-methyl-2-oxo-1,2-dihydropyridin-4-ylcarbonyl)thiazol-2-yl]pyridine-4-carboxamide], the melting point is 243 to 255 °C (dec.).

`CCn1ccc(C(=O)c2sc(NC(=O)c3ccncc3)nc2-c2ccco2)cc1=O` [Compound 369, N-[5-(1-Ethyl-2-oxo-1,2-dihydropyridin-4-ylcarbonyl)-4-(2-furyl)thiazol-2-yl]pyridine-4-carboxamide] returned a melting point of 277 to 281 °C.

Compound `O=C(Nc1nc(-c2ccco2)c(C(=O)c2ccn(Cc3ccccc3)c(=O)c2)s1)c1ccncc1` [Compound 371, N-[5-(1-Benzyl-2-oxo-1,2-dihydropyridin-4-ylcarbonyl)-4-(2-furyl)thiazol-2-yl]pyridine-4-carboxamide] showed a melting point of 288 to 291 °C.
